Laboratory results as given in ChEMBL document CHEMBL3430912, “GSK Tres Cantos Anti-Kinetoplastid Screening (TCAKS) Data”.

Columns and labels:
Trypanosoma cruzi [1] = assay: GSK_TCAKS: pIC50 Trypanosoma cruzi viability assay using beta-GAL activity. This assay was run at single shot at 5uM compound concentration per well. The biological reagents consisted of NIH-3T3 host cells and trypomastigotes parasitic cells; both cell types were set to a 3.3 * 10^5 cells/mL dilution in assay DMEM by means of a CASY cell counter device using a 60um capillary. 6 uL of the mixture were dispensed per well (about 1 * 10^3 host-cells and 1 * 10^3 parasites) with a Multidrop Combi dispenser. […] In all wells, the percentage of DMSO never exceeded 0.5%. Plates incubated for four days at 37C, 5% CO2. The substrate used for the assay fluorescence intensity (FLINT) readout was resorufin-beta-D-galactopiranoside (Sigma-Aldrich) at 5uM per well. It was diluted in PBS supplemented with the soft detergent Igepal (Fluka).; format: functional, organism-based, Mus musculus; details: Tulahuen, NIH3T3
Trypanosoma cruzi [2] = assay: (§1) GSK_TCAKS: pIC50 Trypanosoma cruzi Imaging: Infected Cells. […] Cells were then washed once with PBS before infection. T. cruzi trypomastigotes, collected at days 5 to 8 after infection from LLC-MK2 parasite infected cultures, were allowed to swim out for 4h at 37C from a centrifuged pellet (2,500 rpm/10 min/room temperature). Trypomastigotes were then collected and counted in a CASY Cell Counter. Trypomastigotes, in supplemented DMEM, were added to H9c2 cultures in a multiplicity of infection of 1 and incubated for 18 h. Cells were washed once with PBS before incubation of the infected H9c2 monolayer with trypsin (Life-Technologies) to detach cells from the flask. Cells were counted in a CASY Cell Counter using a 150 um capillary and their density set at 5 * 10^4 cells per mL in supplemented assay DMEM. Infected H9c2 were dispensed into 384-well poly-lysine coated assay plates at 50uL per well using a Multidrop Combi dispenser. After seeding them, the plates were incubated at 37C, 5% CO2 for 72h. Cultures were then fixed and stained by addition of 50 uL of a solution containing 8% formaldehyde and 4 uM DRAQ5 DNA dye (BioStatus, UK) per well. […] Five images were collected per well for reliable statistical analysis. Automated image analysis was performed with a script developed on Acapella High Content Imaging and Analysis Software (PerkinElmer). Output: percentage of infected cells per well as a second infection marker.; format: functional, organism-based, Rattus norvegicus; details: H9c2, 4 h
Trypanosoma cruzi [3] = assay: GSK_TCAKS: pIC50 Trypanosoma cruzi Imaging: Amastigotes/Cell. […] Cells were then washed once with PBS before infection. T. cruzi trypomastigotes, collected at days 5 to 8 after infection from LLC-MK2 parasite infected cultures, were allowed to swim out for 4h at 37C from a centrifuged pellet (2,500 rpm/10 min/room temperature). Trypomastigotes were then collected and counted in a CASY Cell Counter. Trypomastigotes, in supplemented DMEM, were added to H9c2 cultures in a multiplicity of infection of 1 and incubated for 18 h. Cells were washed once with PBS before incubation of the infected H9c2 monolayer with trypsin (Life-Technologies) to detach cells from the flask. Cells were counted in a CASY Cell Counter using a 150 um capillary and their density set at 5 * 10^4 cells per mL in supplemented assay DMEM. Infected H9c2 were dispensed into 384-well poly-lysine coated assay plates at 50uL per well using a Multidrop Combi dispenser. After seeding them, the plates were incubated at 37C, 5% CO2 for 72h. Cultures were then fixed and stained by addition of 50 uL of a solution containing 8% formaldehyde and 4 uM DRAQ5 DNA dye (BioStatus, UK) per well. […] Five images were collected per well for reliable statistical analysis. Automated image analysis was performed with a script developed on Acapella High Content Imaging and Analysis Software (PerkinElmer). Output: number of amastigotes per cell as infection level measurement.; format: functional, organism-based, Rattus norvegicus; details: H9c2, 4 h
Trypanosoma cruzi [4] = assay: as §1, with “H2C9” for “Trypanosoma cruzi”, “H9c2 Host Cardiomyocytes.” for “Infected Cells.”, “Number” for “percentage”, “H9c2 Host Cardiomyocytes nuclei to determine drug-related cytotoxicity.” for “infected cells per well as a second infection marker.”; format: functional, organism-based, Rattus norvegicus; details: H9c2, 4 h
Leishmania donovani [5] = assay: GSK_TCAKS: pIC50 Leishmania donovani viability assay using fluorescence intensity. Assay plates (1536-well) were prepared by adding 30nL per well of compound. For single shot assay, the final compound concentration was 5uM. […] Briefly, eGFP LdBOB axenic amastigotes were harvested, fixed and counted in a CASY cell counter (Roche-Applied Science). A final concentration of 1.5 * 10^5 cells per well were prepared in amastigote media containing 500 U/mL penicillin/streptomycin (Invitrogen) and 6uL was dispensed to each experimental well using a Multidrop Combi dispenser (Thermo Scientific). 6uL of assay media was dispensed to control columns used as reference for 100% compound response. Following incubation for 72 h at 37C, 5% CO2, 2 uL of resazurin was added to each well at a final concentration of 0.5 mM in phosphate buffered saline (PBS) with IGEPAL (Sigma-Aldrich), 0.05% (v/v).; format: functional, organism-based
Leishmania donovani [6] = assay: GSK_TCAKS: pIC50 Leishmania donovani Imaging: Infected Macrophages. Assay plates (384-well) were prepared by adding 250nL of compound to each well. For single shot assay, the final compound concentration was 5 uM. […] Automated image analysis was performed with a script developed on Acapella High Content Imaging and Analysis Software (PerkinElmer). Output: Percent of infected macrophage cells were reported for each well.; format: functional, organism-based, Homo sapiens; details: THP-1
Leishmania donovani [7] = assay: GSK_TCAKS: pIC50 Leishmania donovani Imaging: Amastigotes/Macrophages. Assay plates (384-well) were prepared by adding 250nL of compound to each well. For single shot assay, the final compound concentration was 5 uM. […] Automated image analysis was performed with a script developed on Acapella High Content Imaging and Analysis Software (PerkinElmer). Output: Average number of amastigotes per macrophage cell were reported for each well.; format: functional, organism-based, Homo sapiens; details: THP-1
Leishmania donovani [8] = assay: GSK_TCAKS: pIC50 Leishmania donovani Imaging: THP-1 Host Macrophages. Assay plates (384-well) were prepared by adding 250nL of compound to each well. For single shot assay, the final compound concentration was 5 uM. […] Automated image analysis was performed with a script developed on Acapella High Content Imaging and Analysis Software (PerkinElmer). Output: THP-1 cell count were reported for each well.; format: functional, organism-based, Homo sapiens
[9] = tested on: Trypanosoma brucei brucei; assay: GSK_TCAKS: pIC50 Trypanosoma brucei viability assay using fluorescence intensity. Assay plates (1536-well) were prepared by dispensing 25nL of compound solution per well using an Echo acoustic dispenser (Labcyte).; format: functional, organism-based; details: Lister 427, 2 h
[10] = tested on: Trypanosoma brucei brucei; assay: GSK_TCAKS: pIC50 Trypanosoma brucei viability assay using luminiscence. Assay plates (1536-well) were prepared. T. brucei cultures were harvested and counted in a CASY cell counter. A parasite suspension was prepared at a final concentration of 5 * 10^4 cells/mL in complete HMI9 medium and 6uL was dispensed to all wells containing compounds using a Multidrop Combi dispenser. 6uL of HMI9 media with 0.4% DMSO were dispensed to control columns. Plates were incubated for 24 h at 37C, 5% CO2 then tempered for 10 min at room temperature. ATP content was quantified by adding 4 uL of CellTiter-Glo Reagent (Promega) according to the manufacturer's instructions. Luminescence was measured using a ViewLux.; format: functional, organism-based; details: Lister 427, CASY
[11] = GSK_TCAKS: pIC50 HepG2 human cell line viability assay using luminiscence. […] Seeding density was checked to ensure that new mono-layers were not more than 50% confluent at the time of harvesting. Cell suspension was added to 500 mL of the same medium at a final density of 1.2 * 10^5 cells/mL. This cell suspension was dispensed (25 uL, 3000 cells per well) into 384-well clear-bottom plates using a Multidrop Combi dispenser. Prior to addition of the cell suspension, the screening compounds (250 nL) were pre-dispensed into the plates with an Echo liquid handler. Plates were incubated for 48 h at 37C, 5% CO2. After incubation, plates equilibrated at room temperature for 30 min before proceeding to develop the luminescent signal. The signal developer, CellTiter-Glo Reagent, was allowed to equilibrate at room temperature for 30 min and added to the plates (25uL per well) using a Multidrop Combi dispenser. Plates were left for 10 min at room temperature for stabilization and then read using a ViewLux.; format: toxicity, cell-based
[12] = target: Sterol 14-alpha demethylase (Trypanosoma cruzi (strain CL Brener), UniProt Q7Z1V1); assay: GSK_TCAKS: pIC50 CYP51 from Trypanosoma cruzi.; format: functional
Sequence of Sterol 14-alpha demethylase (Q7Z1V1 whole entry): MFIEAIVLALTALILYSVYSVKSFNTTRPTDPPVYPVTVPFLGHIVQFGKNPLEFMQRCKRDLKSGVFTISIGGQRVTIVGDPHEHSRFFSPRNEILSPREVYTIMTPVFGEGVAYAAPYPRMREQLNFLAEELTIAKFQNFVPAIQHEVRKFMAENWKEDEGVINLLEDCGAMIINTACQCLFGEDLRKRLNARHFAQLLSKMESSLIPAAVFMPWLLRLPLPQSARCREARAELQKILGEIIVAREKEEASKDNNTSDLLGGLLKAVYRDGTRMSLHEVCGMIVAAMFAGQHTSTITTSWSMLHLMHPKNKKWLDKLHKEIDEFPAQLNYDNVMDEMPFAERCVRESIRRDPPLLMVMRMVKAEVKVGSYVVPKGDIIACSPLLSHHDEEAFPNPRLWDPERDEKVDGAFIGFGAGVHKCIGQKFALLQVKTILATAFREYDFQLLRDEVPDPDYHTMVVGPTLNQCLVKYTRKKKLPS

Structure (SMILES)	IC50 (Trypanosoma cruzi [1])	IC50 (Trypanosoma cruzi [2])	IC50 (Trypanosoma cruzi [3])	IC50 (Trypanosoma cruzi [4])	IC50 (Leishmania donovani [5])	IC50 (Leishmania donovani [6])	IC50 (Leishmania donovani [7])	IC50 (Leishmania donovani [8])	IC50 [9]	IC50 [10]	IC50 at 48 h [11]	IC50 [12]
COc1ccc(C2=NCC(CSc3nnc(-c4ccc5c(c4)OCO5)o3)S2)cc1 (configuration not stated)	2.51 µM	0.501 µM	0.316 µM	> 50.1 µM	1 µM	1 µM	0.398 µM	> 50.1 µM	10 µM	> 39.8 µM	> 100 µM	10 µM
O=C(Nc1nc(-c2ccccn2)cs1)c1ccc(S(=O)(=O)N2CCCCC2)cc1	0.631 µM	0.631 µM	0.398 µM	2.51 µM	0.631 µM	1.26 µM	1 µM	12.6 µM	0.398 µM	0.631 µM	63.1 µM	6.31 µM
C[C@@H](Oc1cc(-n2cnc3ccc(C(O)CO)cc32)sc1C(N)=O)c1ccccc1C(F)(F)F (some centres not stated)	5.01 µM	20 µM	15.8 µM	0.631 µM	15.8 µM	20 µM	12.6 µM	15.8 µM	0.398 µM	0.794 µM	> 10 µM	25.1 µM
COc1cccc(S(=O)(=O)Nc2ccc3c(c2)CC(N2CCC(NC(=O)C4CC4)CC2)C3)c1 (configuration not stated)	39.8 µM	> 50.1 µM	31.6 µM	> 50.1 µM	> 50.1 µM	> 50.1 µM	25.1 µM	> 50.1 µM	1 µM	0.794 µM	> 100 µM	63.1 µM
O=C(NC1CCN(C2Cc3ccc(NS(=O)(=O)c4cc(F)cc(F)c4)cc3C2)CC1)C1CC1 (configuration not stated)	> 50.1 µM	> 50.1 µM	> 50.1 µM	> 50.1 µM	25.1 µM	> 50.1 µM	12.6 µM	12.6 µM	1 µM	0.794 µM	> 100 µM	50.1 µM
COc1cccc(C(=O)[C@H]2C[C@@H]2CN(Cc2ccccn2)Cc2ccccn2)c1	1.26 µM	1.26 µM	0.794 µM	20 µM	7.94 µM	2 µM	1.58 µM	> 50.1 µM	15.8 µM	20 µM	> 100 µM	31.6 µM
O=C(CC1(O)C(=O)N(Cc2ccccc2)c2ccc(Br)cc21)c1cccnc1 (configuration not stated)	5.01 µM	25.1 µM	20 µM	3.16 µM	> 50.1 µM	> 50.1 µM	31.6 µM	39.8 µM	0.631 µM	0.794 µM	63.1 µM	3.98 µM
O=C(Nc1ccc(-c2nc3ccccc3c(=O)[nH]2)cc1)c1cccs1	3.16 µM	> 50.1 µM	> 50.1 µM	> 50.1 µM	> 50.1 µM	> 50.1 µM	> 50.1 µM	> 50.1 µM	0.251 µM	1 µM	> 100 µM	> 100 µM
O=C(c1ccc(Cl)cc1)c1ccc(OC(=O)N2CCOCC2)cc1	12.6 µM	> 50.1 µM	6.31 µM	> 50.1 µM	6.31 µM	5.01 µM	2 µM	> 50.1 µM	7.94 µM	> 39.8 µM	> 100 µM	39.8 µM
CCc1cccc(CC)c1-n1c(SCC(=O)NC(=O)NCc2ccco2)nnc1-c1cccnc1	12.6 µM	12.6 µM	7.94 µM	> 50.1 µM	> 50.1 µM	> 50.1 µM	> 50.1 µM	> 50.1 µM	0.398 µM	0.794 µM	> 100 µM	1 µM
C[C@@H](Oc1cc(-n2cnc3ccc(CC(O)CO)cc32)sc1C(N)=O)c1ccccc1Cl (some centres not stated)	3.16 µM	50.1 µM	12.6 µM	0.126 µM	25.1 µM	39.8 µM	31.6 µM	39.8 µM	0.631 µM	0.794 µM	> 100 µM	25.1 µM
